Patent US20250136655A1, “INJECTION PEN FOR SUBCUTANEOUS ADMINISTRATION OF A PEPTIDE” (Zealand Pharma A/S, priority 2017, published 2025)
Several values for one entry are separate records, joined by “and”; a condition that tells them apart may be missing. Equal entries are not always repeated. Where two headings read alike, the source gives them in different places. Blank lines part the entries; values can stand above or below the molecule they belong to. Ends that are not written are not given here.

Columns and labels:
[1] = Phase 2 clinical trial PK profile of ZP1848 and metabolites in SBS patients; format: in vivo; details: human, plasma
Description: The study was designed as a randomized, cross-over and double-blinded with three different doses of ZP1848 (10 mg, 1 mg, 0.1 mg) in 16 SBS patients.
The 18 SBS patients (16 patients completed the study) were randomized evenly and in a double-blinded fashion to each of the six cross-over dose level combinations: 10 mg/1 mg, 10 mg/0.1 mg, 1 mg/10 mg, 1 mg/0.1 mg, 0.1 mg/10 mg, 0.1 mg/1 mg of ZP1848. The patients were injected once daily (QD) subcutaneously with the above doses of ZP1848.
Blood samples for PK analysis were collected on several study visits throughout the study period: the study comprised a 1st baseline balance study (4 days), a 1st treatment period (21 days) including a 1st treatment balance study (last 4 days of 1st treatment period), followed by a wash-out period (at least 4 weeks); and a 2nd baseline balance study (4 days), a 2nd treatment period (21 days) including a 2nd treatment balance study (last 4 days of 2nd treatment period) and a follow-up period (at least 4 weeks).
PK sampling was performed at visit 11 (1st treatment, balance study) and visit 17 (second day of 2nd baseline study-after a wash out period), and again at visit 25 (2nd treatment balance study) and at visit 29 (last day of follow-up period).
At day visit 11 and visit 25 a full PK profile in steady state was investigated. PK samples were taken prior to injection of ZP1848, and at the following time points (+/−10 minutes) after trial product administration: 1 h, 2 h, 4 h, 6 h, 8 h, 10 h, 12 h and 24 h. Each PK sample contained 2 mL of blood, resulting in a total of […] blood drawn for PK purposes. The plasma sample was immediately stored at −80° C. after sampling.
Plasma samples were analyzed after immunoaffinity extraction followed by liquid chromatography mass spectrometry (LC-MS/MS). […] Plasma terminal elimination half-life (T½) was determined as In (2)/ke where ke is the magnitude of the slope of the log linear regression of the log concentration versus time profile during the terminal phase.

Wistar rats = experiment: Intestinotrophic effects following 26-week chronic exposure in rats; format: in vivo; details: in words
Description: Wistar rats were dosed subcutaneously (SC) with vehicle, 1, 3 and 10 mg/kg ZP1848 on a daily basis for 26 weeks. Further sub-groups of control and high-dose animals were allowed a 6-week recovery period following completion of the dosing period. […] The length and the weight of the small and large intestines were measured at necropsy as indicators of intestinotrophic effects and the intestinal tract was evaluated histologically.

[2] = previous experiments; cited from earlier work
[3] = cited from earlier work
human GLP-2 receptor = target: T1, human GLP-2 receptor (human, UniProt O95838 1-553); experiment: cell-based or functional assay
T1 sequence (looked up): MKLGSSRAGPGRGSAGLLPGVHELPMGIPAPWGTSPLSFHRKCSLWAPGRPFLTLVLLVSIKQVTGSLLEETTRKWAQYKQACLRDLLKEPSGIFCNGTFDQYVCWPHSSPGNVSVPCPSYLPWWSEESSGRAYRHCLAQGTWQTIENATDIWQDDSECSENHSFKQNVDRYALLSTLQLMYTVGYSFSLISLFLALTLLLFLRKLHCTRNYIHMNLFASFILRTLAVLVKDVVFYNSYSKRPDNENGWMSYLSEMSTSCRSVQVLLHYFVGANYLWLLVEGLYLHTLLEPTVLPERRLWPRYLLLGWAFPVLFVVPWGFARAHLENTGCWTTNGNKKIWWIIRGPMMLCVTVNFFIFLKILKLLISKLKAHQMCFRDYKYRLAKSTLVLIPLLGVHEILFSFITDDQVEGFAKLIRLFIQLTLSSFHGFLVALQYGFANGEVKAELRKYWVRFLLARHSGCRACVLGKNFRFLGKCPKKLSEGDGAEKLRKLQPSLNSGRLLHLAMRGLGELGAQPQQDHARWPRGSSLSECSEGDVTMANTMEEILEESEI

[4] = Phase 1 PK trial of glepaglutide in healthy subjects, half-life of metabolite ZP2469; format: in vivo, human; details: per subject; for half-life: human, plasma
Source text: A Phase 1, Open-Label, Partially Randomized, 3-Part, Parallel Group Trial to Evaluate the Pharmacokinetic Profile of glepaglutide (ZP1848) After a Single Intravenous Injection and After Multiple Subcutaneous Injections in Healthy Human Subjects A Phase 1 clinical trial to characterize the pharmacokinetic (PK) profiles of glepaglutide (ZP1848) and its primary active metabolites following once-weekly and once daily subcutaneous (SC) injections and after a single intravenous (IV) infusion in healthy subjects was conducted. This included evaluating the pharmacodynamic effects on plasma citrulline levels following SC dosing in healthy subjects. The trial confirmed the feasibility of dosage regimes in which GLP-2 analogues are administered to patients in weekly dosage regimes and compare weekly dosage regimes with daily dosing.
The trial design was a single-center, open-label, partially randomized, 3-part, parallel group trial to characterize the PK profile of glepaglutide administered by SC injection once daily for 7 days (Part 1), SC injection once weekly for 6 weeks (Part 2), and as a single IV infusion (Part 3) in healthy subjects.
Group A: 1 mg glepaglutide once daily, given as single SC injections on Days 1 to 7.
Group B: 5 mg glepaglutide once daily, given as single SC injections on Days 1 to 7.
Group C: 5 mg glepaglutide once weekly, given as single SC injections on Days 1, 8, 15, 22, 29, and 36.
Group D: 10 mg glepaglutide once weekly, given as single SC injections on Days 1, 8, 15, 22, 29, and 36.
Blood samples were collected for the analysis of plasma concentrations of glepaglutide and its primary active metabolites, ZP2469 (ZP18481-34) and ZP2711 (ZP18481-35); samples were assayed using validated analytical methods. The following PK parameter estimates were calculated using standard non-compartmental methods: terminal elimination half-life (t1/2), total body clearance of drug after IV administration (CL; IV dose, parent drug only), apparent total clearance (CL/F; SC doses, parent drug only), volume of distribution at steady state (Vss; IV dose, parent drug only), apparent volume of distribution at steady state (Vss/F; SC doses, parent drug only), volume of distribution (Vz; IV dose, parent drug only), apparent volume of distribution (Vz/F; SC doses, parent drug only), maximum observed plasma concentration (Cmax), area under the plasma concentration-time curve (AUC) over a dosing interval (AUCT), AUC from time zero to infinity (AUCinf), AUC from time zero to the time of the last measurable concentration (AUClast), and time of the maximum observed plasma concentration (tmax). Metabolite exposure (based on Cmax, AUCT, and AUCinf) were determined for each group as a ratio of the 2 primary active metabolites, ZP2469 (ZP18481-34) and ZP2711 (ZP18481-35), relative to the glepaglutide parent drug.
The PK parameters estimates for glepaglutide, ZP2469 (ZP18481-34), and ZP2711 (ZP 18481-35) were listed and summarized using standard descriptive statistics. The primary PK parameters are t1/2 for glepaglutide, ZP2469 (ZP18481-34), and ZP2711 (ZP18481-35); and CL (IV dose), CL/F (SC doses), Vss(IV dose), Vss/F (SC dose), Vz(IV dose), and Vz/F (SC doses) for glepaglutide. The half-life is calculated as LN(2)/ke where ÷ke is estimate from the slope of the terminal part of the LN(concentration) versus time curve, with repeats regressions of LN(concentration) values using the last three points with non-zero concentrations, then the last four points, last five points, etc. Points with a concentration value of zero are not included. Points prior to Cmax are not used. […] 2) ke must be calculated from at least three data points. 3) The estimated slope must be negative, so that its negative ke is positive. The results of the calculations carried out with preliminary data are shown in Table 4, while the results of the calculations with the complete final data set are shown in Table 5. […]

[5] = subcutaneous, Phase 2 study, SBS patients, read-out: terminal plasma half-life

Molecule: H-HGEGTFSSELATILDALAARDFIAWLIATKITDKKKKKK-NH2 [ZP1848] [listing 1 of 2 here]
- mucosal hyperplasia of the duodenum, jejunum and ileum (Wistar rats; 1, 3 and 10 mg/kg SC daily for 26 weeks): dose-related increase
- length and weight of the large intestine (Wistar rats; SC daily for 26 weeks): slightly increased

Molecule: GLP-2 [3-33]: truncated GLP-2 [3-33] (DGSFSDEMNTILDNLAARDFINWLIQTKITD; Glucagon-like peptide 2; UniProt P01275 148-178, looked up, fragment)
- half-life ([3]; in humans): ~0.45 h

Molecule: Teduglutide (peptide)
- EC50 Avg (nM), cAMP AlphaScreen in HEK293 cells expressing hGLP-2R (human GLP-2 receptor): 0.03 nM

Molecule: CC[C@H](C)[C@H](NC(=O)[C@H](Cc1ccccc1)NC(=O)[C@H](CC(=O)O)NC(=O)[C@H](CCCNC(=N)N)NC(=O)[C@H](C)NC(=O)[C@H](C)NC(=O)[C@H](CC(C)C)NC(=O)[C@H](CC(N)=O)NC(=O)[C@H](CC(=O)O)NC(=O)[C@H](CC(C)C)NC(=O)[C@@H](NC(=O)[C@@H](NC(=O)[C@H](CC(N)=O)NC(=O)[C@H](CCSC)NC(=O)[C@H](CCC(=O)O)NC(=O)[C@H](CC(=O)O)NC(=O)[C@H](CO)NC(=O)[C@H](Cc1ccccc1)NC(=O)[C@H](CO)NC(=O)CNC(=O)[C@H](CC(=O)O)NC(=O)CNC(=O)[C@@H](N)Cc1c[nH]cn1)[C@@H](C)O)[C@@H](C)CC)C(=O)N[C@@H](CC(N)=O)C(=O)N[C@@H](Cc1c[nH]c2ccccc12)C(=O)N[C@@H](CC(C)C)C(=O)N[C@H](C(=O)N[C@@H](CCC(N)=O)C(=O)N[C@H](C(=O)N[C@@H](CCCCN)C(=O)N[C@H](C(=O)N[C@H](C(=O)N[C@@H](CC(=O)O)C(=O)O)[C@@H](C)O)[C@@H](C)CC)[C@@H](C)O)[C@@H](C)CC [Teduglutide]
- half-life ([3]; in vivo): about two

Molecule: Hy-His-Ala-Asp-Gly-Ser-Phe-Ser-Asp-Glu-Met-Asn-Thr-Ile-Leu-Asp-Asn-Leu-Ala-Ala-Arg-Asp-Phe-Ile-Asn-Trp-Leu-Ile-Gln-Thr-Lys-Ile-Thr-Asp-OH [GLP-2 [1-33]]
- half-life ([3]; in humans): around 7 minutes
- half-life ([3]; in humans, listed as native GLP-2): seven

B1: ZP2469 (peptide)
peptide: HGEGTFSSELATILDALAARDFIAWLIATKITDK-OH
- EC50_Avg (nM), cAMP AlphaScreen in HEK293 cells expressing hGLP-2R (human GLP-2 receptor): 0.052 nM

B2: ZP1848 (peptide)
peptide: HGEGTFSSELATILDALAARDFIAWLIATKITDKKKKKK-NH2
- EC50_Avg (nM), cAMP AlphaScreen in HEK293 cells expressing hGLP-2R (human GLP-2 receptor): 0.3 nM

B3: ZP2711 (peptide)
peptide: HGEGTFSSELATILDALAARDFIAWLIATKITDKK-OH
- EC50_Avg (nM), cAMP AlphaScreen in HEK293 cells expressing hGLP-2R (human GLP-2 receptor): 0.072 nM

B4: ZP2949 (peptide)
peptide: HGEGTFSSELATILDALAARDFIAWLIATKITDKKK-OH
- EC50_Avg (nM), cAMP AlphaScreen in HEK293 cells expressing hGLP-2R (human GLP-2 receptor): 0.11 nM

B5: ZP1846 (peptide)
peptide: HGEGSFSSELSTILDALAARDFIAWLIATKITDKKKKKK-NH2
- EC50_Avg (nM), cAMP AlphaScreen in HEK293 cells expressing hGLP-2R (human GLP-2 receptor): 0.26 nM

Continued, in another order:

- half-life ([1]; sc, plasma terminal elimination half-life, per subject, after SC once-daily ZP1848, read-out: Half-life (converted)): 336 h
Molecule: H-HGEGTFSSELATILDALAARDFIAWLIATKITDKK-OH [ZP2711]

- half-life [1, 5]: 120 to 408 h
Molecule: H-HGEGTFSSELATILDALAARDFIAWLIATKITDKKKKKK-NH2 [ZP1848] [listing 2 of 2 here]
- half-life [2]: about 17 hours

- Half-life of ZP2469 in the interval from 72 to 168 hours post dose ([4]; final results, Group A, 1 mg once daily, after 7 doses): 75 h
- Half-life of ZP2469 in the interval from 72 to 168 hours post dose ([4]; final results, Group C, 5 mg once weekly, after 1 dose): 59 h and 75 h
- Half-life of ZP2469 in the interval from 72 to 168 hours post dose ([4]; final results, Group C, 5 mg once weekly, after 6 doses): 57 h
- Half-life of ZP2469 in the interval from 72 to 168 hours post dose ([4]; final results, Group D, 10 mg once weekly, after 6 doses): 59 h and 53 h and 42 h and 48 h
- half-life ([4]; sc, 10 mg, preliminary results, Group D, 10 mg glepaglutide SC once weekly, after 1 dose, read-out: Half-life ZP2469 (converted)): 56 h
- half-life ([4]; subcutaneous, 1 mg, final results, Group A, 1 mg once daily, after 7 doses, read-out: Half-life of ZP2469 in the interval from 72 to 168 hours post dose (converted)): 94 h
- Half-life ZP2469 ([4]; preliminary results, Group A, 1 mg glepaglutide SC once daily, after 7 doses): 20 h
- Half-life ZP2469 ([4]; preliminary results, Group C, 5 mg glepaglutide SC once weekly, after 1 dose): 17 h
- Half-life ZP2469 ([4]; preliminary results, Group D, 10 mg glepaglutide SC once weekly, after 1 dose): 38 h and 34 h
- half-life [1, 5]: 120 to 408 h
Molecule: H-HGEGTFSSELATILDALAARDFIAWLIATKITDK-OH [ZP2469]
- Half-life of ZP2469 in the interval from 72 to 168 hours post dose ([4]; final results, Group D, 10 mg once weekly, after 1 dose): 54 h and 46 h and 35 h and 60 h and 26 h and 53 h and 43 h and 33 h and 45 h and 38 h
